Data reported in patent US9403755B2, “Isometheptene isomer” (TONIX PHARMACEUTICALS INC., priority 2013, dated 2016).

Columns and labels:
[1] = cited from earlier work; for plasma half-life: human volunteers, enantiomers
human TAAR1 receptor = target: T1, human TAAR1 receptor (Homo sapiens, UniProt Q96RJ0); assay: TAAR1 cAMP Biosensor Assay; assay type: cell-based; conditions: for EC50: TAAR1 cAMP accumulation, agonist dose response, mucate salts; for Efficacy: TAAR1 activation, final concentration of 10 μM, free base
T1 sequence (Q96RJ0 1-339): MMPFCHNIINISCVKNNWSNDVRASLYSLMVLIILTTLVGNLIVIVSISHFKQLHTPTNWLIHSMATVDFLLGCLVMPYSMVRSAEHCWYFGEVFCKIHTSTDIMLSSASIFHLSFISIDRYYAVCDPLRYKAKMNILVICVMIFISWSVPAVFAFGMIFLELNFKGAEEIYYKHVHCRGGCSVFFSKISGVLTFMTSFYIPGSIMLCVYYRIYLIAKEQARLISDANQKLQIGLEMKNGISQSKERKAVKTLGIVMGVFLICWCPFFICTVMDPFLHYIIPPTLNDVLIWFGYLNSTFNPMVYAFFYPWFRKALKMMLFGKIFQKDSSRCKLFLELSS
Protocol: To measure interactions with TAAR1, cell line stably expressing a recombinant human TAAR1 receptor were studied in the cAMP Biosensor Assay (DiscoveRx, Freemont, Calif.) since TAAR1 is coupled to G-proteins that signal through cAMP. The (S)- and (R)-Isometheptene isomers at a final concentration of 10 μM activate TAAR1 differentially, as shown on the table below, wherein (S)-Isometheptene activates more effectively than the R-Isometheptene. These activities may be linked to side-effects of racemic Isometheptene, due to the interaction of S-Isometheptene to the TAAR1 tyramine receptor.
Isometheptene Mucate USP, Isometheptene Mucate isomer 1, Isometheptene Mucate isomer 2 and p-Tyramine (control) in the TAAR1 cAMP Biosensor Assay of FIG. 23 as shown by the following diagrams (A), (B), (C), and (D). The data is shown as an agonist dose response curve, normalized to the maximal and minimal response observed in the presence of control ligand and vehicle respectively
The cAMP Hunter cell line expressing human TAAR1 was expanded from freezer stocks according to standard procedures. Cells were seeded in a total volume of 20 μL into white walled, 384-well microplates and incubated at 37° C. for the appropriate time prior to testing. cAMP modulation was determined using the DiscoveRx HitHunter cAMP XS+ assay. For agonist determination, cells were incubated with sample to induce response. Media was aspirated from cells and replaced with 15 μL 2:1 HBSS/10 mM Hepes:cAMP XS+ Ab reagent. Intermediate dilution of sample stocks was performed to generate 4× sample in assay buffer. 4.5 μL of 4× sample was added to cells and incubated at 37° C. or room temperature for 30 or 60 minutes. Final assay vehicle concentration was 1%. After appropriate compound incubation, assay signal was generated through incubation with 20 μL cAMP XS+ ED/CL lysis cocktail for one hour followed by incubation with 20 μL cAMP XS+ EA reagent for three hours at room temperature. Microplates were read following signal generation with a PerkinElmer Envision™ instrument for chemiluminescent signal detection. Compound activity was analyzed using CBIS data analysis suite (ChemInnovation, CA). For Gs agonist mode assays, percentage activity was calculated using the following formula: % Activity=100%×(mean RLU of test sample−mean RLU of vehicle control)/(mean RLU of MAX control−mean RLU of vehicle control).

α2B-adrenergic receptor = target: T2, α2B-adrenergic receptor (Homo sapiens, UniProt P18089); assay: ligand binding screen and equilibrium binding, α2B-adrenergic receptor; conditions: Adrenergic a2B; for inhibition at 10 µM: inhibition of ligand binding; for Ki: equilibrium binding
T2 sequence (P18089 1-450): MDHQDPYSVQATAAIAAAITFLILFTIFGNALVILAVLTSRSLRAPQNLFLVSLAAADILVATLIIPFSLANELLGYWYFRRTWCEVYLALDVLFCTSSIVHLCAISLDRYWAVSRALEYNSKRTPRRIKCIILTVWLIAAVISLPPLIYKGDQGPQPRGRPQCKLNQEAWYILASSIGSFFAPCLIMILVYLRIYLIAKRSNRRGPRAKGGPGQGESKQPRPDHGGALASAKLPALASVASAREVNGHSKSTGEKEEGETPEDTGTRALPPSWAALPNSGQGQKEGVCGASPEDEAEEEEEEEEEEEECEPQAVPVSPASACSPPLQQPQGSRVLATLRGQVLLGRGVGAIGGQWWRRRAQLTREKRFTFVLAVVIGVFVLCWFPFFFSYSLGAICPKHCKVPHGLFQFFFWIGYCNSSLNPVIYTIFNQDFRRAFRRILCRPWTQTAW

[2] = hydrochloride or mucate salt form; cited from earlier work
5-HT 1A = target: T3, 5-HT 1A (Homo sapiens, UniProt P08908); assay: receptor binding screen, 5-HT 1A
T3 sequence (P08908 1-422): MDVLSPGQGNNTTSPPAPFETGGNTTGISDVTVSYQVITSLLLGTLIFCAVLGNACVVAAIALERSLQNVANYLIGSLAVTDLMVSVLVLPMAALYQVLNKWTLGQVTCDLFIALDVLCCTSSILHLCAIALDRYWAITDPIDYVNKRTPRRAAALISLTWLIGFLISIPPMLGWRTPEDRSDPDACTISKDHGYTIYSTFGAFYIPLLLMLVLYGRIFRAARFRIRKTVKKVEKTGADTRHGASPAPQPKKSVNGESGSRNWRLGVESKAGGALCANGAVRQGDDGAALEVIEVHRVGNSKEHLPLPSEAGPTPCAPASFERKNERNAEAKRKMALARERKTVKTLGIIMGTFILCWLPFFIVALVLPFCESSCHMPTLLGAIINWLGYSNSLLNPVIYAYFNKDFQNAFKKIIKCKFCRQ

Adrenergic a2C = target: T4, Adrenergic a2C (Homo sapiens, UniProt P18825); assay: receptor binding screen, Adrenergic a2C
T4 sequence (P18825 1-462): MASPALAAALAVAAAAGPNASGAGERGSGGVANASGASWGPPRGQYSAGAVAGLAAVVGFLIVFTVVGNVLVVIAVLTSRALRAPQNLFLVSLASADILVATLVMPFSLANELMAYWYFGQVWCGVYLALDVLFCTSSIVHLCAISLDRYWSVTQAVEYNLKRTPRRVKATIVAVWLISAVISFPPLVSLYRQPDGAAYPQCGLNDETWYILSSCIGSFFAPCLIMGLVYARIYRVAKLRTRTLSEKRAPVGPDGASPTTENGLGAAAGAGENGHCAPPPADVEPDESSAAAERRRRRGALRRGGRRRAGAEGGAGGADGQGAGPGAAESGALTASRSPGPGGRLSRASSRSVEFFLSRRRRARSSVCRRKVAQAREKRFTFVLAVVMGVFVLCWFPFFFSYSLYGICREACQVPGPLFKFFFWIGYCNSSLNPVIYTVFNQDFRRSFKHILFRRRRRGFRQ

5-HT7 = 5-HT7 (Homo sapiens, UniProt P34969); assay: receptor binding screen, 5-HT7; conditions: 5-HT7, 10 μM
[3] = tested on: Imidazoline 1 (I1) receptor; assay: Imidazoline I1 receptor radioligand binding assay; set-up: species or system bovine; conditions: for Ki: Imidazoline-1 (I1), equilibrium binding
Protocol: Evaluation of the Affinity of Compounds for the Peripheral Imidazoline Receptor in Bovine Adrenal Medulla Glands Determined in a Radioligand Binding Assay.
Membrane homogenates of adrenal medulla glands (200 μg protein) are incubated for 60 min at 22° C. with 15 nM [^3H]clonidine in the absence or presence of the test compound in a buffer containing 137 mM NaCl, 2.68 mM KCl, 0.5 mM MgCl2, 8.1 mM Na2HPO4, 1.47 mM KH2PO4, 0.5 mM EGTA, 0.5 mM EDTA, 0.5% ascorbic acid and 0.1% BSA (pH 7.4). It also contains 10 μM RX821002 to block the α2-adrenergic receptors.
Nonspecific binding is determined in the presence of 10 μM rilmenidine.
Following incubation, the samples are filtered rapidly under vacuum through glass fiber filters (GF/B, Packard) presoaked with 0.3% PEI and rinsed several times with ice-cold 50 mM Tris-HCl using a 96-sample cell harvester (Unifilter, Packard). The filters are dried then counted for radioactivity in a scintillation counter (Topcount, Packard) using a scintillation cocktail (Microscint 0, Packard).
The results are expressed as a percent inhibition of the control radioligand specific binding.
The standard reference compound is rilmenidine, which is tested in each experiment at several concentrations to obtain a competition curve from which its IC50 is calculated.
Bibliographic reference: MOLDERINGS, G. J., MOURA, D., FINK, K., BONISCH, H. and GOTHERT, M. (1993), Binding of [3H]clonidine to I1-imidazoline sites in bovine adrenal medullary membranes, Naun.-Sch. Arch. Pharm., 348: 70.

Sigma-1 receptor = Sigma-1 receptor (Homo sapiens, UniProt Q99720); assay: equilibrium binding, Sigma-1 receptor; conditions: Sigma 1, equilibrium binding
[4] = target: Imidazoline-2 (I2) receptor; assay: central Imidazoline I2 receptor radioligand binding assay; set-up: species or system rat
Protocol: Evaluation of the Affinity of Compounds for the Central Imidazoline I2 Receptor in the Rat Cerebral Cortex Determined in a Radioligand Binding Assay.
Membrane homogenates of cerebral cortex (1 mg protein) are incubated for 30 min at 22° C. with 2 nM [^3H]idazoxan in the absence or presence of the test compound in a buffer containing 50 mM Tris-HCl (pH 7.4), 0.5 mM EDTA and 3 μM yohimbine.
Nonspecific binding is determined in the presence of 10 μM cirazoline.
Following incubation, the samples are filtered rapidly under vacuum through glass fiber filters (Filtermat B, Wallac) presoaked with 0.3% PEI and rinsed several times with an ice-cold buffer containing 50 mM Tris-HCl and 150 mM NaCl using a 48-sample cell harvester (Mach II, Tomtec). The filters are dried then counted for radioactivity in a scintillation counter (Betaplate 1204, Wallac) using a solid scintillator (Meltilex B/HS, Wallac).
The results are expressed as a percent inhibition of the control radioligand specific binding. The standard reference compound is idazoxan, which is tested in each experiment at several concentrations to obtain a competition curve from which its IC50 is calculated.
Bibliographic reference: BROWN, C. M., MAC KINNON, A. C., McGRATH, J. C., SPEDDING, M. and KILPATRICK A. T. (1990), α2-adrenoceptor subtypes and imidazoline-like binding sites in the rat brain, Brit. J. Pharmacol, 99: 803.

[5] = tested on: Sigma receptor (non-selective); assay: ligand binding screen, non-selective Sigma receptor; conditions: Sigma (non-select), inhibition of ligand binding
Sigma-2 receptor = Sigma-2 receptor (Homo sapiens, UniProt Q5BJF2); assay: equilibrium binding, Sigma-2 receptor; conditions: Sigma 2, equilibrium binding
Chain of Sigma-2 receptor (Q5BJF2 whole entry, species assumed): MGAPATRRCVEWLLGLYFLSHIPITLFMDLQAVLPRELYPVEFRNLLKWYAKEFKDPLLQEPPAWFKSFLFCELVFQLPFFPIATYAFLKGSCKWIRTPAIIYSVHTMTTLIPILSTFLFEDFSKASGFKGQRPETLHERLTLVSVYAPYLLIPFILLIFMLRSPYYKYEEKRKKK

Chain of 5-HT7 (P34969 whole entry, species assumed): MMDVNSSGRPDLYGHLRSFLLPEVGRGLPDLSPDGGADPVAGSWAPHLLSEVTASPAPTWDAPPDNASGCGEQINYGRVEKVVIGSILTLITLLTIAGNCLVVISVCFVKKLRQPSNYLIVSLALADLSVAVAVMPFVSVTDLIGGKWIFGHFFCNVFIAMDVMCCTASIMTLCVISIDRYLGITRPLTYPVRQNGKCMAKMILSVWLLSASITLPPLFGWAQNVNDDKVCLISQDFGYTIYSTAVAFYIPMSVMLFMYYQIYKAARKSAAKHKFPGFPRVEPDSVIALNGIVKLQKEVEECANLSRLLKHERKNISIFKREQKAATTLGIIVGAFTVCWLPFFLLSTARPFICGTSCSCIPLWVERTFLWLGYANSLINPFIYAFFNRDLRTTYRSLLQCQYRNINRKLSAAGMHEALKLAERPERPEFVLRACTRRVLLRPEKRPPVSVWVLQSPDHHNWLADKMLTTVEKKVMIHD
Chain of Sigma-1 receptor (Q99720 whole entry, species assumed): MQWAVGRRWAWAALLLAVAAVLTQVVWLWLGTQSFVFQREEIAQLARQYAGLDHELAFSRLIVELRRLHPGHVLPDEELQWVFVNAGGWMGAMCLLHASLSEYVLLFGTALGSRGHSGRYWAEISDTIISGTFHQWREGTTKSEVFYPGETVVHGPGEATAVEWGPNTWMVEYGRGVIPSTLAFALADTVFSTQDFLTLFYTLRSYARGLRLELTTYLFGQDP

For `CN[C@@H](C)Cc1ccc2c(c1)OCO2` [(S)-MDMA], the plasma half-life [1] is given as 3.6 ± 0.9 h.

Work on `CN[C@@H](C)CCC=C(C)C` (single isomer, unassigned) [Isometheptene Mucate Isomer 1] yielded an EC50 (human TAAR1 receptor) of 21.1 µM.

In the case of `CNC(C)Cc1ccc2c(c1)OCO2` (racemic) [MDMA, 3,4-methylenedioxy-N-methylamphetamine], the half-life ([1]; given as the racemate) is given as “around 8 hours”.

In the case of `CNC(C)CCC=C(C)C` (racemic) [Racemic, reference compound], the inhibition at 10 µM (α2B-adrenergic receptor) is given as 76%, the solubility in water [2] is given as “soluble in water” and the inhibition at 10 µM (5-HT 1A) is given as 37%. The inhibition at 10 µM (Adrenergic a2C) was 41% and the inhibition at 10 µM (5-HT7) was 46%.

For `CNC(C)CCC=C(C)C` (single isomer, unassigned) [Isomer 2], the “binding to I1 receptor more avidly than the (S)-Isometheptene enantiomer” value ([3]; (R) versus (S) enantiomer) was “about 60 fold”, the Ki [3] was 0.018 µM and the Ki (α2B-adrenergic receptor) was 2.3 µM. For the same compound, the inhibition at 10 µM (α2B-adrenergic receptor) was 57%, the Ki (Sigma-1 receptor) was 1.9 µM and the Ki [4] was 1.5 µM. For the same compound, the “Inhibition @ 10 μM(%)” value [4] was 86%, the “Inhibition @ 10 μM(%)” value [5] was 86% and the inhibition at 10 µM (Adrenergic a2C) was 0%. The inhibition at 10 µM (5-HT7) was 31%, the Ki (Sigma-2 receptor) was 5.6 µM and the Efficacy (human TAAR1 receptor) was 25.6%.

In the case of `CN[C@H](C)Cc1ccc2c(c1)OCO2` [(R)-MDMA, (R)-3,4-methylenedioxy-N-methylamphetamine], the “area under the blood plasma concentration versus time curve (AUC), (R)-MDMA relative to (S)-MDMA” value ([1]; 40 mg oral dose in human volunteers) is given as “two to four times higher” and the plasma half-life [1] is given as 5.8 ± 2.2 h.

Work on `O=C(O)[C@@H](O)[C@H](O)[C@H](O)[C@@H](O)C(=O)O` (single isomer, unassigned) [Isometheptene Mucate Isomer 2] yielded an EC50 (human TAAR1 receptor) of 29.5 µM.

In the case of `CN[C@@H](C)CCC=C(C)C` (single isomer, unassigned) [Isomer 1], the “interaction with I1 less avidly than the R-Isometheptene enantiomer” value ([3]; (S) versus (R) enantiomer) is reported as “about 60 fold”, the Ki [3] is reported as 1.1 µM and the Ki (α2B-adrenergic receptor) is reported as 2.7 µM. It also gave an inhibition at 10 µM (α2B-adrenergic receptor) of 29%, a Ki (Sigma-1 receptor) of 2.1 µM and a Ki [4] of 1.1 µM. For the same compound, the “Inhibition @ 10 μM(%)” value [4] was 84%, the “Inhibition @ 10 μM(%)” value [5] was 87% and the inhibition at 10 µM (Adrenergic a2C) was 0%. For the same compound, the inhibition at 10 µM (5-HT7) was 13%, the Ki (Sigma-2 receptor) was 5.2 µM and the Efficacy (human TAAR1 receptor) was 49.4%.
